Laboratory results taken from patent publication US20240148684A1, “COMPOUNDS AND METHODS FOR TREATING CONGENITAL ERYTHROPOIETIC PORPHYRIA” (RUTGERS, THE STATE UNIVERSITY OF NEW JERSEY, priority 2021, published 2024).
Blank lines part the entries; values can stand above or below the molecule they belong to.

Columns and labels:
[1] = system: uro-I injected zebrafish larvae; experiment: Zebrafish CEP model, prophylaxis protocol (retinoid co-administered with uro-I injection); type: in vivo, Zebrafish (Danio rerio); settings: 24 hours, vs DMSO; for porphyrin fluorescence in bones (operculum and vertebrae): 10 μM in E3 medium
Description: Techniques that can be used to perform the methods of the invention are described by Elenbaas, J. S., et al., FASEB, 2016, 30, 1798-1810; and Cunha, J. B., Scientific Reports, 2021, 11, 9601.
Validation and characterization of acitretin as a potential treatment for CEP was performed. Six dpf ABTL zebrafish larvae injected with uro-I were immediately transferred to 10 cm plastic dishes containing 10 μM acitretin or DMSO in E3 medium (prophylaxis protocol FIG. 2A) and incubated for 24 hours in the dark at 28.5° C. Porphyrin binding to bones and bone volume were analyzed by confocal microscopy as described above. Porphyrin excretion into the medium was quantified. Uro-I-injected larvae were transferred to 96-well plates, one larva/well, […] of […] acitretin or DMSO/well. Medium was collected after 24 hours and porphyrin was quantified as described previously.
(§1) Etretinate (Selleck Chemicals, Houston, TX) and tretinoin (Selleck Chemicals, Houston, TX) treatment was performed as described for acitretin. In addition to being used as prophylaxis, the therapeutic effect of acitretin was evaluated. Six dpf AB×TL zebrafish larvae were injected with Uro-I and 24 hours later they were transferred to E3 medium containing […] acitretin or DMSO. Porphyrin binding, excretion and bone volume were analyzed. Saos-2 cells were treated with […] acitretin or DMSO in medium containing MAC and Uro-I.

[2] = system: uro-I injected zebrafish larvae; experiment: Zebrafish CEP model, therapeutic protocol (acitretin 24 hours after uro-I injection); type: in vivo, Zebrafish (Danio rerio); settings: acitretin from 24 hours after uro-I, further 24 hours
Description: as §1

[3] = system: uro-I injected zebrafish larvae; experiment: High throughput drug screening (Prestwick library) in zebrafish CEP model; type: in vivo, Zebrafish (Danio rerio); settings: 24 h, visual analysis vs DMSO-treated larvae, drug tested individually
Description: Unbiased high throughput drug screening was performed using the Prestwick library (Prestwick Chemical), which consists of 1,280 small molecules chosen by the manufacturer for their bioavailability and safety. […] Zebrafish E3 medium ([…]) was transferred to a 96-well half area imaging plate (Corning, cat. n. 3880) using a Multidrop dispenser (ThermoFisher Scientific). Compounds ([…] of 2 mM stock) were added to the wells using a multichannel plate handling robot (Biomek FX, Beckman Coulter Life Sciences). […] Control wells contained […] of DMSO.
Six dpf NHGRI-1 zebrafish larvae were injected retro-orbitally with approximately 2 nL of a solution of Uro-I (10 mM) and calcein (0.2% w/v). Immediately after injection, larvae were transferred to a 96-well test plate (two larvae in […] of E3 medium/well), including the DMSO control wells. Control larvae injected with the drug vehicle (dimethyl sulfoxide, DMSO) and calcein were transferred to E3 medium-only containing wells. Larvae were kept in the dark, at 28.5° C. After 24 h, they were anesthetized with tricaine-S, centrifuged at 500×g for two minutes and imaged using the ImageXpress Micro Cellular Imaging and Analysis System (Molecular Devices). Positive hits were selected based on visual identification of calcein signal increase and porphyrin signal decrease compared to DMSO-treated larvae. […]

zebrafish larvae [4] = experiment: Acitretin dose-response curve, toxicity to zebrafish larvae; type: in vivo, Zebrafish (Danio rerio); settings: dose-response 0.5-12.5 mM
Saos-2 cells [5] = type: cell-based, human
Description: Saos-2 cells were purchased from ATCC. Cells were maintained in McCoy 5A medium supplemented with 15% FBS, penicillin/streptomycin, non-essential amino acids, Hepes and L-glutamine. To induce mineralization, cells were treated with mineralization activation cocktail (MAC), consisting of 5 mM b-glycerophosphate, […] ascorbic acid and 10 nM dexamethasone. Uro-I solution preparation and treatment of zebrafish larvae and Saos-2 cells
(§2) Saos-2 cells were plated in 12-well plates (1.5×10^5 cells/well) and allowed to attach overnight. Cells were then treated with Uro-I ([…] final concentration) or vehicle in medium containing MAC for 3 days. Experiments were conducted in a dark room and cells were kept shielded from light in a tissue culture incubator.
Etretinate (Selleck Chemicals, Houston, TX) and tretinoin (Selleck Chemicals, Houston, TX) treatment was performed as described for acitretin. In addition to being used as prophylaxis, the therapeutic effect of acitretin was evaluated. […] Porphyrin binding, excretion and bone volume were analyzed. […]
Cell mineralization was quantified by ARS (Sigma Aldrich St. Louis, MO) staining as described previously (Harper, E. et al. PLoS One 12, e0188192, doi:10.1371/journal.pone.0188192 (2017)), with minor modifications. […] ARS standard curve (from 2-0.02 mM) and samples were transferred in triplicate to a 96-well plate and absorbance was measured at 405 nm.

Saos-2 cells [6] = experiment: Saos-2 immunoblotting of ER stress (BiP) and autophagy (LC3-II) markers; type: cell-based, human; settings: acitretin with MAC and Uro-I, vs DMSO
Description: as §2, §1
Saos-2 cells were lysed in ice cold RIPA buffer (Sigma Aldrich, St. Louis, MO) with protease inhibitor cocktail (Thermo Scientific, Waltham, MA) and scraped. Whole cell lysate was kept in the dark until reducing SDS-PAGE sample buffer was added. Immunoblotting, band densitometry and mass spectrometry were conducted as described previously (Maitra, D. et al. Cell Mol Gastroenterol Hepatol 8, 659-682 e651, doi:10.1016/j.jcmgh.2019.05.010 (2019); and Maitra, D. et al. J Biol Chem 290, 23711-23724, doi:10.1074/jbc.M114.636001 (2015)). […]

Saos-2 cells [7] = type: cell-based, human; remark: listed apart in the source
Description: as §2, §1
Saos-2 cells RNA was extracted using RNeasy mini kit (Qiagen, Catalog #: 74104). and gene expression was carried using the RT^2 Profiler PCR Array for human cellular stress responses (Qiagen, Catalog #: PAHS-019ZA) following manufacturer's instructions. A previously described qPCR (Elenbaas, J. S. et al. Gastroenterology 154, 1625-1629 e1628, doi:10.1053/j.gastro.2018.01.024 (2018)) was performed for COL1A1 and SERPINH1 (IDT Integrated DNA Technologies, PrimeTime assay ID Hs.PT.58.15517795 and Hs.PT.56a.26865778, respectively).

zebrafish larvae [8] = settings: in vivo
Description: Uro-I (uroporphyrin-I dihydrochloride; Frontier Scientific, Catalog #: U830-1) was initially resuspended in 0.1M NaOH and the pH was adjusted to neutral using 0.2 M Na2HPO4. Six days post fertilization (dpf), ABTL zebrafish larvae were injected via the retro-orbital route with approximately 3 nL of 7.2 mM Uro-I solution and control larvae were injected with vehicle (0.1M NaOH in 0.2M Na2HPO4). After injection, larvae were immediately transferred to Petri dishes wrapped with heavy duty aluminum foil and kept in a dark incubator, at 28.5° C., for 24 h. Where indicated, 7 dpf larvae were injected with approximately 2 nL of 0.2% w/v calcein (Sigma, Catalog #: C0875) 2 h prior to imaging.
Seven dpf AB×TL zebrafish larvae were anesthetized with tricaine-S (Syndel) and immobilized in 0.5% low melt agarose. Fluorescent z-series were captured using an Olympus FV500 confocal microscope (10× objective, confocal aperture of 300 mm) with an optical thickness of 10 mm and z-step size of 10 mm. Calcein was excited with a 488 nm argon laser and emission was captured between 505 and 525 nm. Porphyrin was excited with a 405 nm laser diode and emission was captured above 560 nm. Three-dimensional image reconstruction and quantification of fluorescent signal and bone volume were performed using Imaris 3D visualization and analysis software v7.7 (Bitplane).

[9] = acitretin in uro-I treated cells

Structure (SMILES): CC1=C(/C=C/C(C)=C/C=C/C(C)=C/C(=O)O)C(C)(C)CCC1 [tretinoin, all trans-retinoic acid]
porphyrin fluorescence in bones (operculum and vertebrae) [1]: significantly reduced | operculum volume (bone volume) [1]: did not prevent loss in bone volume

Structure (SMILES): CCOC(=O)/C=C(C)/C=C/C=C(C)/C=C/c1c(C)cc(OC)c(C)c1C [etretinate]
porphyrin fluorescence in bones (operculum and vertebrae) [1]: did not demonstrate significant activity

Structure (SMILES): COc1cc(C)c(/C=C/C(C)=C/C=C/C(C)=C/C(=O)O)c(C)c1C [acitretin]
porphyrin fluorescence in bones (operculum and vertebrae) [1]: significantly reduced | operculum volume (bone volume) [1]: no effect | uro-I excretion into the medium [1]: increased | bone porphyrin fluorescence [2]: did not decrease | operculum volume [2]: increased | uro-I excretion to the medium [2]: increased | uro-I accumulation in bones (screening hit) [3]: decreased uro-I accumulation in bones | toxicity to zebrafish larvae (zebrafish larvae [4]): without being toxic | uro-I-mediated loss of mineralization (ARS staining) (Saos-2 cells [5]; 10 mM acitretin in medium containing MAC and Uro-I): did not prevent | BiP level (ER stress response) (Saos-2 cells [6]): reducing BiP level | LC3-II (autophagic flux) (Saos-2 cells [6]): reducing LC3-II | SOD3 downregulation (Saos-2 cells [7]; [9]): 3.8 fold | Upregulation of COL1A1 (Saos-2 cells [7]; [9]): 1.7 × | Upregulation of SERPINH1 (Saos-2 cells [7]; [9]): 5.4 ×

mineralization (ARS staining) (Saos-2 cells [5]): decreased significantly | HSPA5 expression increase (Saos-2 cells [7]): 2.1 × | SERPINH1 expression decrease (Saos-2 cells [7]): 3.3 × | SOD3 expression increase (Saos-2 cells [7]): 2.8 × | reduction in COL1A1 expression (Saos-2 cells [7]): 90% | operculum and 4th vertebra volume (zebrafish larvae [8]): significantly decreased
Structure (SMILES): Cl.Cl.O=C(O)CCC1=C(CC(=O)O)c2cc3nc(cc4[nH]c(cc5[nH]c(cc1n2)c(CC(=O)O)c5CCC(=O)O)c(CC(=O)O)c4CCC(=O)O)C(CC(=O)O)=C3CCC(=O)O [Uro-I, uroporphyrin-I dihydrochloride]
